# Experimental data taken from ChEMBL document CHEMBL3885881, “DrugMatrix”.
# Organism: Rattus norvegicus
# Experiment: DrugMatrix - Regimen: Daily Repeat
# Format: toxicity, organism-based, Sprague-Dawley
# Design: regimen Daily Repeat, gender Male, age 6-8 weeks
# Conditions: in vivo, iv, vehicle 100 % SALINE; for ABSOLUTE BASOPHIL / ABSOLUTE EOSINOPHIL / ABSOLUTE LYMPHOCYTE / ABSOLUTE MONOCYTE / ABSOLUTE SEGMENTED NEUTROPHIL / BASOPHIL / EOSINOPHIL / ERYTHROCYTE COUNT / HEMATOCRIT / HEMOGLOBIN / LEUKOCYTE COUNT / LYMPHOCYTE / MEAN CORPUSCULAR HEMOGLOBIN / MEAN CORPUSCULAR HEMOGLOBIN CONCENTRATION / MEAN CORPUSCULAR VOLUME / MONOCYTE / NEUTROPHIL / NUCLEATED RED BLOOD CELLS / PLATELET COUNT: tissue Blood; for ALANINE AMINOTRANSFERASE / ALBUMIN / ALKALINE PHOSPHATASE / ASPARTATE AMINOTRANSFERASE / BLOOD UREA NITROGEN / CARBON DIOXIDE / CHLORIDE / CHOLESTEROL / CREATINE PHOSPHOKINASE / CREATININE / GLUCOSE / LACTATE DEHYDROGENASE / LIPASE / PHOSPHORUS / POTASSIUM / SODIUM / TOTAL BILIRUBIN / TOTAL PROTEIN / URIC ACID: tissue Plasma
# [1] = 11 mg/kg, 72 h, dose level High, time 3 day
# [2] = 11 mg/kg, 120 h, dose level High, time 5 day
# [3] = […], 72 h, dose 2.6 mg/Kg, dose level Low, time 3 day
# [4] = […], 120 h, dose 2.6 mg/Kg, dose level Low, time 5 day
structure (smiles),measurement,setting,value
Nc1ccn([C@@H]2O[C@H](CO)[C@@H](O)C2(F)F)c(=O)n1 [GEMCITABINE],ABSOLUTE BASOPHIL,[1],0 CELLS/uL
same,ABSOLUTE EOSINOPHIL,[1],0 CELLS/uL
same,ABSOLUTE LYMPHOCYTE,[1],4311.33 CELLS/uL
same,ABSOLUTE MONOCYTE,[1],21.67 CELLS/uL
same,ABSOLUTE SEGMENTED NEUTROPHIL,[1],200.33 CELLS/uL
same,BASOPHIL,[1],0%
same,EOSINOPHIL,[1],0%
same,ERYTHROCYTE COUNT,[1],5.19 x10E6/uL
same,HEMATOCRIT,[1],33.27%
same,HEMOGLOBIN,[1],13.03 G/DL
same,LEUKOCYTE COUNT,[1],4.53 x10E3/uL
same,LYMPHOCYTE,[1],95%
same,MEAN CORPUSCULAR HEMOGLOBIN,[1],25.07 pg
same,MEAN CORPUSCULAR HEMOGLOBIN CONCENTRATION,[1],39.2 G/DL
same,MEAN CORPUSCULAR VOLUME,[1],63.93 fL
same,MONOCYTE,[1],0.33%
same,NEUTROPHIL,[1],4.67%
same,NUCLEATED RED BLOOD CELLS,[1],0 /100WBC
same,PLATELET COUNT,[1],706.67 x10E3/uL
same,ALANINE AMINOTRANSFERASE,[1],46.67 u/L
same,ALBUMIN,[1],3.5 G/DL
same,ALKALINE PHOSPHATASE,[1],373 u/L
same,ASPARTATE AMINOTRANSFERASE,[1],100.67 u/L
same,BLOOD UREA NITROGEN,[1],15.67 mg/dL
same,CARBON DIOXIDE,[1],24.33 mmol/L
same,CHLORIDE,[1],107.33 MEQ/L
same,CHOLESTEROL,[1],63.33 mg/dL
same,CREATINE PHOSPHOKINASE,[1],316.67 u/L
same,CREATININE,[1],0.13 mg/dL
same,GLUCOSE,[1],143 mg/dL
same,LACTATE DEHYDROGENASE,[1],80.33 u/L
same,LIPASE,[1],8 u/L
same,PHOSPHORUS,[1],9.73 mg/dL
same,POTASSIUM,[1],5.2 MEQ/L
same,SODIUM,[1],145.57 MEQ/L
same,TOTAL BILIRUBIN,[1],0.17 mg/dL
same,TOTAL PROTEIN,[1],4.97 G/DL
same,URIC ACID,[1],1.3 mg/dL
same,ABSOLUTE BASOPHIL,[2],0 CELLS/uL
same,ABSOLUTE EOSINOPHIL,[2],12.67 CELLS/uL
same,ABSOLUTE LYMPHOCYTE,[2],2696.33 CELLS/uL
same,ABSOLUTE MONOCYTE,[2],10 CELLS/uL
same,ABSOLUTE SEGMENTED NEUTROPHIL,[2],47.67 CELLS/uL
same,BASOPHIL,[2],0%
same,EOSINOPHIL,[2],0.33%
same,ERYTHROCYTE COUNT,[2],8.1 x10E6/uL
same,HEMATOCRIT,[2],50%
same,HEMOGLOBIN,[2],19.4 G/DL
same,LEUKOCYTE COUNT,[2],2.77 x10E3/uL
same,LYMPHOCYTE,[2],97.67%
same,MEAN CORPUSCULAR HEMOGLOBIN,[2],24 pg
same,MEAN CORPUSCULAR HEMOGLOBIN CONCENTRATION,[2],38.9 G/DL
same,MEAN CORPUSCULAR VOLUME,[2],61.67 fL
same,MONOCYTE,[2],0.33%
same,NEUTROPHIL,[2],1.67%
same,NUCLEATED RED BLOOD CELLS,[2],0.33 /100WBC
same,PLATELET COUNT,[2],374.33 x10E3/uL
same,ALANINE AMINOTRANSFERASE,[2],34.67 u/L
same,ALBUMIN,[2],3.5 G/DL
same,ALKALINE PHOSPHATASE,[2],152.67 u/L
same,ASPARTATE AMINOTRANSFERASE,[2],232 u/L
same,BLOOD UREA NITROGEN,[2],36.67 mg/dL
same,CARBON DIOXIDE,[2],26.33 mmol/L
same,CHLORIDE,[2],107 MEQ/L
same,CHOLESTEROL,[2],104.67 mg/dL
same,CREATINE PHOSPHOKINASE,[2],2721.33 u/L
same,CREATININE,[2],0.23 mg/dL
same,GLUCOSE,[2],286.33 mg/dL
same,LACTATE DEHYDROGENASE,[2],384.67 u/L
same,LIPASE,[2],10.33 u/L
same,PHOSPHORUS,[2],10.93 mg/dL
same,POTASSIUM,[2],4.87 MEQ/L
same,SODIUM,[2],146.9 MEQ/L
same,TOTAL BILIRUBIN,[2],0.1 mg/dL
same,TOTAL PROTEIN,[2],6.03 G/DL
same,URIC ACID,[2],1.6 mg/dL
same,ABSOLUTE BASOPHIL,[3],0 CELLS/uL
same,ABSOLUTE EOSINOPHIL,[3],0 CELLS/uL
same,ABSOLUTE LYMPHOCYTE,[3],7048.67 CELLS/uL
same,ABSOLUTE MONOCYTE,[3],0 CELLS/uL
same,ABSOLUTE SEGMENTED NEUTROPHIL,[3],484.67 CELLS/uL
same,BASOPHIL,[3],0%
same,EOSINOPHIL,[3],0%
same,ERYTHROCYTE COUNT,[3],5.03 x10E6/uL
same,HEMATOCRIT,[3],31.87%
same,HEMOGLOBIN,[3],12.73 G/DL
same,LEUKOCYTE COUNT,[3],7.53 x10E3/uL
same,LYMPHOCYTE,[3],93.67%
same,MEAN CORPUSCULAR HEMOGLOBIN,[3],25.37 pg
same,MEAN CORPUSCULAR HEMOGLOBIN CONCENTRATION,[3],39.97 G/DL
same,MEAN CORPUSCULAR VOLUME,[3],63.43 fL
same,MONOCYTE,[3],0%
same,NEUTROPHIL,[3],6.33%
same,NUCLEATED RED BLOOD CELLS,[3],0 /100WBC
same,PLATELET COUNT,[3],1190.67 x10E3/uL
same,ALANINE AMINOTRANSFERASE,[3],55.33 u/L
same,ALBUMIN,[3],4.03 G/DL
same,ALKALINE PHOSPHATASE,[3],332.67 u/L
same,ASPARTATE AMINOTRANSFERASE,[3],110 u/L
same,BLOOD UREA NITROGEN,[3],16.67 mg/dL
same,CARBON DIOXIDE,[3],25 mmol/L
same,CHLORIDE,[3],97.67 MEQ/L
same,CHOLESTEROL,[3],76.67 mg/dL
same,CREATINE PHOSPHOKINASE,[3],485.33 u/L
same,CREATININE,[3],0.14 mg/dL
same,GLUCOSE,[3],175.33 mg/dL
same,LACTATE DEHYDROGENASE,[3],141.67 u/L
same,LIPASE,[3],9 u/L
same,PHOSPHORUS,[3],12.07 mg/dL
same,POTASSIUM,[3],6.4 MEQ/L
same,SODIUM,[3],141.6 MEQ/L
same,TOTAL BILIRUBIN,[3],0.2 mg/dL
same,TOTAL PROTEIN,[3],5.93 G/DL
same,URIC ACID,[3],1.5 mg/dL
same,ABSOLUTE BASOPHIL,[4],0 CELLS/uL
same,ABSOLUTE EOSINOPHIL,[4],0 CELLS/uL
same,ABSOLUTE LYMPHOCYTE,[4],4224 CELLS/uL
same,ABSOLUTE MONOCYTE,[4],19 CELLS/uL
same,ABSOLUTE SEGMENTED NEUTROPHIL,[4],23.67 CELLS/uL
same,BASOPHIL,[4],0%
same,EOSINOPHIL,[4],0%
same,ERYTHROCYTE COUNT,[4],5.09 x10E6/uL
same,HEMATOCRIT,[4],32.1%
same,HEMOGLOBIN,[4],12.83 G/DL
same,LEUKOCYTE COUNT,[4],4.27 x10E3/uL
same,LYMPHOCYTE,[4],99%
same,MEAN CORPUSCULAR HEMOGLOBIN,[4],25.2 pg
same,MEAN CORPUSCULAR HEMOGLOBIN CONCENTRATION,[4],39.97 G/DL
same,MEAN CORPUSCULAR VOLUME,[4],63.1 fL
same,MONOCYTE,[4],0.33%
same,NEUTROPHIL,[4],0.67%
same,NUCLEATED RED BLOOD CELLS,[4],0.33 /100WBC
same,PLATELET COUNT,[4],699.67 x10E3/uL
same,ALANINE AMINOTRANSFERASE,[4],46.33 u/L
same,ALBUMIN,[4],4.17 G/DL
same,ALKALINE PHOSPHATASE,[4],368 u/L
same,ASPARTATE AMINOTRANSFERASE,[4],127.67 u/L
same,BLOOD UREA NITROGEN,[4],13.33 mg/dL
same,CARBON DIOXIDE,[4],24.67 mmol/L
same,CHLORIDE,[4],104 MEQ/L
same,CHOLESTEROL,[4],70.67 mg/dL
same,CREATINE PHOSPHOKINASE,[4],350.33 u/L
same,CREATININE,[4],0.12 mg/dL
same,GLUCOSE,[4],151.67 mg/dL
same,LACTATE DEHYDROGENASE,[4],93.33 u/L
same,LIPASE,[4],8 u/L
same,PHOSPHORUS,[4],11.03 mg/dL
same,POTASSIUM,[4],6.21 MEQ/L
same,SODIUM,[4],143.67 MEQ/L
same,TOTAL BILIRUBIN,[4],0.1 mg/dL
same,TOTAL PROTEIN,[4],6.03 G/DL
same,URIC ACID,[4],1.63 mg/dL
